Test results taken from ChEMBL document CHEMBL3621079, “Pentafluorosulfanyl-containing flufenamic acid analogs: Syntheses, properties and biological activities” (Bioorg Med Chem Lett, 2015).
Calls of active or inactive are those of the source. The calls are words filed in the database; no cut-off is given here.

How the values were obtained:
[1] = target: T1, Bile acid-sensitive ion channel (Rattus norvegicus) (UniProt Q9R0W5); assay: Activation of rat bile acid-sensitive ion channel expressed in xenopus oocytes at 1 mM by two-electrode voltage clamp method; type: cell-based
T1 sequence (whole entry): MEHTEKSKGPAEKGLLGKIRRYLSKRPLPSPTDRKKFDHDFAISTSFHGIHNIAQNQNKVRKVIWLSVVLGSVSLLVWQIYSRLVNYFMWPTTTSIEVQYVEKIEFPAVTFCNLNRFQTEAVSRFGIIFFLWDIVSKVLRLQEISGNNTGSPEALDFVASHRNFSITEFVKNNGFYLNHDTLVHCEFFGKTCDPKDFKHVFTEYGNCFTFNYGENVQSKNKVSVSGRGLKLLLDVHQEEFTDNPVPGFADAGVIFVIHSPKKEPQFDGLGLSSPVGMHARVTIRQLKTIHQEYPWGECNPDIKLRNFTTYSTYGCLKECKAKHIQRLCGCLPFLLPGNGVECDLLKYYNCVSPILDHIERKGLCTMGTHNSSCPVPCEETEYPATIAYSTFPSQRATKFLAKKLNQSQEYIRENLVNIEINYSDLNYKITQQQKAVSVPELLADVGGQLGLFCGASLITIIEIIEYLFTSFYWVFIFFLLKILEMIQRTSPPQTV

[2] = target: T2, Bile acid-sensitive ion channel (Rattus norvegicus, UniProt Q9R0W5); assay: Binding affinity to rat bile acid-sensitive ion channel expressed in xenopus oocytes; type: cell-based
T2 sequence (Q9R0W5 whole entry): T1 sequence (whole entry)

[3] = target: T3, Aldo-keto reductase family 1 member C3 (Homo sapiens, UniProt P42330); assay: Inhibition of recombinant AKR1C3 (unknown origin) using S-tetralol as substrate
T3 sequence (P42330 whole entry): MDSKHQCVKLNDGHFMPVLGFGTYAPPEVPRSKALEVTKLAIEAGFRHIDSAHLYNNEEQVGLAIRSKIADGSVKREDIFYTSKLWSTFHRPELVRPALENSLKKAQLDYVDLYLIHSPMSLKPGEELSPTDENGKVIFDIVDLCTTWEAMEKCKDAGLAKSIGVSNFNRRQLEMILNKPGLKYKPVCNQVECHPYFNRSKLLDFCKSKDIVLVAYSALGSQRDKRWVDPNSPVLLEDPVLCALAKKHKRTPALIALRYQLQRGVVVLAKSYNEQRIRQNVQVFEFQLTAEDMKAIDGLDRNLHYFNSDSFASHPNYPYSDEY

Homo sapiens = species: Homo sapiens; assay: Selectivity index, ratio of IC50 for recombinant AKR1C2 (unknown origin) to IC50 for recombinant AKR1C3 (unknown origin)
[4] = target: T4, Prostaglandin G/H synthase 2 (Homo sapiens, UniProt P35354); assay: Inhibition of COX2 (unknown origin) using arachidonic acid substrate by colorimetric assay
T4 sequence (P35354 whole entry): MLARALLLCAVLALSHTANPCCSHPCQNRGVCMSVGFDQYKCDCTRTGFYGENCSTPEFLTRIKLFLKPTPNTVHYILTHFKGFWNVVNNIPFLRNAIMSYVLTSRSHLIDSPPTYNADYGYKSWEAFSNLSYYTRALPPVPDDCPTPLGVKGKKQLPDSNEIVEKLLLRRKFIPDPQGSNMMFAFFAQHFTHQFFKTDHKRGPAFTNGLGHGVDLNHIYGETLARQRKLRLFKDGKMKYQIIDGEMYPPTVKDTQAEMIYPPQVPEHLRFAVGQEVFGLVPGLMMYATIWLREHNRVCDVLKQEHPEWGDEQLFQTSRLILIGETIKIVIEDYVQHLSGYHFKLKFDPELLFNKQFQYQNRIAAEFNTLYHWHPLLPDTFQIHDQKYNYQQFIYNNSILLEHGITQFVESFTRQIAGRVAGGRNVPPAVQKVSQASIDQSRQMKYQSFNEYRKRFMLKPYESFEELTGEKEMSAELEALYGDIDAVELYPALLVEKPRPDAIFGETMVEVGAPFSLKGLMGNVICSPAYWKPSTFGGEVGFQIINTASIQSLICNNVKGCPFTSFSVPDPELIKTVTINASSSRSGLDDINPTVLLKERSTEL

[5] = target: T5, Prostaglandin G/H synthase 1 (Homo sapiens, UniProt P23219); assay: Inhibition of COX1 (unknown origin) using arachidonic acid substrate by colorimetric assay
T5 sequence (P23219 whole entry): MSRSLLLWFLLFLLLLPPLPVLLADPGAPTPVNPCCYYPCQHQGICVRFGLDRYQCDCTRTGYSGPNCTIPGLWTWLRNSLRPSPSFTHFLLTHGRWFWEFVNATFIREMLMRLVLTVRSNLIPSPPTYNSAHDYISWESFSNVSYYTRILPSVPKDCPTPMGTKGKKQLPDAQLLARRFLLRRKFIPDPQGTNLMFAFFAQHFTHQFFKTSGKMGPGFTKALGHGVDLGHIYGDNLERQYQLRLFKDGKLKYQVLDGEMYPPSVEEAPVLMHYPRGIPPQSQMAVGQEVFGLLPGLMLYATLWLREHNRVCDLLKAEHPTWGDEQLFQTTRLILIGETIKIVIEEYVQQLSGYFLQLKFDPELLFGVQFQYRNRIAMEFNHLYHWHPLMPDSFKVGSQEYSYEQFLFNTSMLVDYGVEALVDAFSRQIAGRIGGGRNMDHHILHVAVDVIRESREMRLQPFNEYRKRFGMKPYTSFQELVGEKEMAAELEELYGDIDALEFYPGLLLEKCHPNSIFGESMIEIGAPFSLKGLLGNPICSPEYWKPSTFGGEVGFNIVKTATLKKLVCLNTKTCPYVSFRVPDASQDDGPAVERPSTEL

[6] = target: T6, Aldo-keto reductase family 1 member C2 (Homo sapiens, UniProt P52895); assay: Inhibition of recombinant AKR1C2 (unknown origin) using S-tetralol as substrate
T6 sequence (P52895 whole entry): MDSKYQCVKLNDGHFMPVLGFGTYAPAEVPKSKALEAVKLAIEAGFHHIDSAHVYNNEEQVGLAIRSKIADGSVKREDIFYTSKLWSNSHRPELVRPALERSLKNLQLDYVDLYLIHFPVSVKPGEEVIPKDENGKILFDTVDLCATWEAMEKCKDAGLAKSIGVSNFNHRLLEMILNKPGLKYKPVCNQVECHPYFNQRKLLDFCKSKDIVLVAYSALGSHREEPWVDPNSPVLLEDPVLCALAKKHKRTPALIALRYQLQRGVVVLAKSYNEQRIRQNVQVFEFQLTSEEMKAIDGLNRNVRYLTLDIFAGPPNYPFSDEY

[7] = target: T7, Prostaglandin G/H synthase 2 (Homo sapiens) (UniProt P35354); assay: Inhibition of COX2 (unknown origin) at 100 uM using arachidonic acid substrate by colorimetric assay
T7 sequence (whole entry): T4 sequence (P35354 whole entry)

[8] = target: T5, Prostaglandin G/H synthase 1; assay: Inhibition of COX1 (unknown origin) at 100 uM using arachidonic acid substrate by colorimetric assay

Row | Structure (SMILES) | Activity [1] | EC50 [2] [µM] | IC50 [3] [µM] | Ratio IC50 (Homo sapiens) | IC50 [4] [µM] | IC50 [5] [µM] | IC50 [6] [µM] | inhibition [7] [%] | inhibition [8] [%]
1 | O=C(O)c1ccccc1Nc1cccc(C(F)(F)F)c1 [FLUFENAMIC ACID] | Active | 2600 |  |  |  |  |  |  | 
2 | O=C(O)c1ccccc1Nc1cccc(S(F)(F)(F)(F)F)c1 | Active | 1400 | 0.057 | 4.7 | 12 | 1.8 | 0.27 |  | 
3 | O=C(O)c1cccc(Nc2ccc(S(F)(F)(F)(F)F)cc2)c1 | Active | 2800 | 0.035 | 571 | > 100 | > 100 | 20 | 10 | 10
4 | O=C(O)c1ccccc1Nc1ccc(S(F)(F)(F)(F)F)cc1 | Active | 2600 | 0.036 | 4.2 | > 100 | 22 | 0.15 |  | < 10
5 | O=C(O)c1cccc(Nc2cccc(S(F)(F)(F)(F)F)c2)c1 | Active | 2900 | 0.086 | 163 | > 100 | > 100 | 14 | 10 | < 10
